Measured values: patent US8497276B2, “Substituted indolo-piperidine compounds” (ArQule, Inc., priority 2009, dated 2013)

Legend:
Kato III = assay: MTS Assay (cell growth inhibition), Kato III; assay type: cell-based; settings: Kato III cells, 72 hours with test compound; concentration not given
Method: (§1) Cells were maintained at 37° C., 5% CO2 in DMEM media supplemented with 1% fetal bovine serum, penicillin/streptomycin and fungizone (Invitrogen). Cells were seeded into 96-well tissue culture plates at 3000 per well and cultured at 37° C. for 18 hours. Test compounds were dissolved and diluted to 300× in DMSO then diluted 1:40 in DMEM. Cells were incubated with test compounds for 72 hours followed by incubation with tetrazolium compound (3-(4,5-dimethylthiazol-2-yl)-5-(3-carboxymethoxyphenyl)-2-(4-sulfophenyl)-2H-tetrazolium, inner salt; MTS) and the electron coupling reagent, phenazine methosulfate (PMS) for 4 hours. […] The ability of compounds to inhibit cell growth in this assay is correlated with the reduction of dehydrogenase enzyme activity found in metabolically active cells. The measurement of the absorbance of the formazan was assessed using an ENVISION™ (Perkin Elmer) microplate reader at 492 nm. The calculated IC50 value is the concentration of the test compound that causes a 50% decrease in the absorbance.

MDA-MB 231 = assay: MTS Assay (cell growth inhibition), MDA-MB 231; assay type: cell-based; settings: MDA-MB 231 cells, 72 hours with test compound; concentration not given
Method: as §1

PC-3 = assay: MTS Assay (cell growth inhibition), PC-3; assay type: cell-based; settings: PC-3 cells, 72 hours with test compound; concentration not given
Method: as §1

DLD-1 = assay: MTS Assay (cell growth inhibition), DLD-1; assay type: cell-based; settings: DLD-1 cells, 72 hours with test compound; concentration not given
Method: as §1

NCI-H1299 = assay: MTS Assay (cell growth inhibition), NCI-H1299; assay type: cell-based; settings: NCI-H1299 cells, 72 hours with test compound; concentration not given
Method: as §1

PACA-2 = assay: MTS Assay (cell growth inhibition), PACA-2; assay type: cell-based; settings: PACA-2 cells, 72 hours with test compound; concentration not given
Method: as §1

Tec kinase = molecular target: T1, Tec kinase (Homo sapiens, UniProt P42680); assay: Tec Kinase Activity Assay; assay type: biochemical; settings: 75 μM ATP, Pyk-2 substrate; compound concentration not given
T1 sequence (P42680 1-631): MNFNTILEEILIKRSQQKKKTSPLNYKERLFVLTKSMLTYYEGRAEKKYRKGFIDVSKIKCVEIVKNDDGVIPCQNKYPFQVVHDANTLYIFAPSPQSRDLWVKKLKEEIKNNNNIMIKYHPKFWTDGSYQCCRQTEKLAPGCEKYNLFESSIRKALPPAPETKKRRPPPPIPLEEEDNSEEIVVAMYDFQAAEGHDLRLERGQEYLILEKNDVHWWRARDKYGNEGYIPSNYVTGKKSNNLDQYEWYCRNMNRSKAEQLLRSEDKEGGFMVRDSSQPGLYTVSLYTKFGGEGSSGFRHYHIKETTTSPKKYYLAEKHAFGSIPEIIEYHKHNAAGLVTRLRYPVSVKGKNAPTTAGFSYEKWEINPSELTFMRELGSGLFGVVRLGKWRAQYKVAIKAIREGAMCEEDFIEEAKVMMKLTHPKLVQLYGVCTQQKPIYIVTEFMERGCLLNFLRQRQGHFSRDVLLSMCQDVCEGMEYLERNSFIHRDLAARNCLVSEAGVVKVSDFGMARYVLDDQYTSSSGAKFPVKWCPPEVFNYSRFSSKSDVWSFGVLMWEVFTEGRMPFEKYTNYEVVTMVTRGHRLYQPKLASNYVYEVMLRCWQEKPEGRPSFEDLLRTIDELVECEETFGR
Method: The disclosed compounds were assayed for their ability to inhibit the activity of Tec kinase. Nunc Maxisorb plates were coated with streptavidin by overnight incubation with 100 μl per well of 1 μg/ml Streptavidin in DPBS. Prior to the start of the experiment, the plates were washed with TBST (3×200 μl) and blocked for at least 1 hour by adding 150 μl of 5% BSA/TBST. The plates were then washed with TBST (3×200 μl/well) and left dry immediately before the capture step.
The disclosed test compounds and controls (Staurosporine and Sutent) were prepared using the following assay buffer (50 mM Tris-HCl, 0.02 mg/ml BSA, 10 mM MgCl2, 0.1 mM Na3VO4, 1 mM EGTA, 75 μM ATP, 0.01% NP-40, 2 mM DTT in 10% glycerol/water) at 3× desired final concentration. 20 μl of the test compounds (or control) and 20 μl TEC (0.25 ng/μl) were rapidly added to a reaction plate. The plate was incubated for 30 minutes. 20 μl of Pyk-2 (0.5 ng/μl) was then added to the reaction plate. The plate was incubated at room temperature for two hours.
50 μl was transferred from the reaction plate to the streptavidin coated plate. The capture plate was incubated at room temperature for 30 minutes then washed with TBST 6 times. 100 μl/well of Cell Signaling anti-phospho tyrosine was added to the capture plate at a dilution of 1:3000 in 2% BSA/TBST. The plate was incubated for one hour at room temperature then washed with TBST 6 times. 100 μl/well of alkaline phosphatase tagged goat anti-mouse antibody was added to the capture plate at a dilution of 1:4000 in 2% BSA/TBST. The plate was incubated for one hour at room temperature then washed with TBST 6 times.
The fluorescent readout was initiated by the addition of 100 μl/well of Attophos reagent (6 mg/10 ml) and the reading was done on the Perkin Elmer Envision system.

Biochemical IC50 (% inhibition) Tec (Tec kinase) | Compound | MTS cell kill data (% inhibition) Kato III (Kato III) | MTS cell kill data (% inhibition) MDA-MB 231 (MDA-MB 231) | MTS cell kill data (% inhibition) PC-3 (PC-3) | MTS cell kill data (% inhibition) DLD-1 (DLD-1) | MTS cell kill data (% inhibition) NCI-H1299 (NCI-H1299) | MTS cell kill data (% inhibition) PACA-2 (PACA-2)
C (C = <50% inhibition) | Cc1cccc(C2c3[nH]c4ccccc4c3CCN2c2ncnc3[nH]cnc23)c1 (stereo not drawn) [Compound 11, 1-(3-methylphenyl)-2-(9H-purin-6-yl)-2,3,4,9-tetrahydro-1H-beta-carboline] | A (A = 80-100% inhibition) | B (B = 50-79% inhibition) | C (C = <50% inhibition) | A (A = 80-100% inhibition) | A (A = 80-100% inhibition) | B (B = 50-79% inhibition)
B (B = 50-79% inhibition) | Cc1cccc(C2c3[nH]c4ccccc4c3CCN2c2ncnc3[nH]ncc23)c1 (stereo not drawn) [Compound 12, 1-(3-methylphenyl)-2-(1H-pyrazolo[3,4-d]pyrimidin-4-yl)-2,3,4,9-tetrahydro-1H-beta-carboline] | A (A = 80-100% inhibition) | B (B = 50-79% inhibition) | C (C = <50% inhibition) | B (B = 50-79% inhibition) | B (B = 50-79% inhibition) | C (C = <50% inhibition)
B (B = 50-79% inhibition) | Clc1ccccc1C1c2[nH]c3ccccc3c2CCN1c1ncnc2[nH]cnc12 (stereo not drawn) [Compound 13, 1-(2-chlorophenyl)-2-(9H-purin-6-yl)-2,3,4,9-tetrahydro-1H-beta-carboline] | C (C = <50% inhibition) | C (C = <50% inhibition) | C (C = <50% inhibition) | C (C = <50% inhibition) | B (B = 50-79% inhibition) | C (C = <50% inhibition)
C (C = <50% inhibition) | c1ccc(CC2c3[nH]c4ccccc4c3CCN2c2ncnc3[nH]ccc23)cc1 (stereo not drawn) [Compound 14, 1-benzyl-2-(7H-pyrrolo[2,3-d]pyrimidin-4-yl)-2,3,4,9-tetrahydro-1H-beta-carboline] | A (A = 80-100% inhibition) | A (A = 80-100% inhibition) | A (A = 80-100% inhibition) | B (B = 50-79% inhibition) | A (A = 80-100% inhibition) | B (B = 50-79% inhibition)
C (C = <50% inhibition) | c1ccc(CC2c3[nH]c4ccccc4c3CCN2c2ncnc3[nH]cnc23)cc1 (stereo not drawn) [Compound 15, 1-benzyl-2-(9H-purin-6-yl)-2,3,4,9-tetrahydro-1H-beta-carboline] | B (B = 50-79% inhibition) | A (A = 80-100% inhibition) | A (A = 80-100% inhibition) | B (B = 50-79% inhibition) | A (A = 80-100% inhibition) | C (C = <50% inhibition)
C (C = <50% inhibition) | Nc1nc(N2CCc3c([nH]c4ccccc34)C2Cc2ccccc2)c2nc[nH]c2n1 (stereo not drawn) [Compound 16, 6-(1-benzyl-1,3,4,9-tetrahydro-2H-beta-carbolin-2-yl)-9H-purin-2-amine] | C (C = <50% inhibition) | C (C = <50% inhibition) | C (C = <50% inhibition) | C (C = <50% inhibition) | C (C = <50% inhibition) | C (C = <50% inhibition)
C (C = <50% inhibition) | c1ccc(CC2c3[nH]c4ccccc4c3CCN2c2ncnc3[nH]ncc23)cc1 (stereo not drawn) [Compound 17, 1-benzyl-2-(1H-pyrazolo[3,4-d]pyrimidin-4-yl)-2,3,4,9-tetrahydro-1H-beta-carboline] | B (B = 50-79% inhibition) | C (C = <50% inhibition) | C (C = <50% inhibition) | B (B = 50-79% inhibition) | B (B = 50-79% inhibition) | B (B = 50-79% inhibition)
C (C = <50% inhibition) | CC(C)c1ccc(C2c3[nH]c4ccccc4c3CCN2c2ncnc3[nH]ccc23)cc1 (stereo not drawn) [Compound 18, 1-(4-isopropylphenyl)-2-(7H-pyrrolo[2,3-d]pyrimidin-4-yl)-2,3,4,9-tetrahydro-1H-beta-carboline] | A (A = 80-100% inhibition) | A (A = 80-100% inhibition) | C (C = <50% inhibition) | A (A = 80-100% inhibition) | A (A = 80-100% inhibition) | A (A = 80-100% inhibition)
C (C = <50% inhibition) | CC(C)c1ccc(C2c3[nH]c4ccccc4c3CCN2c2ncnc3[nH]cnc23)cc1 (stereo not drawn) [Compound 19, 1-(4-isopropylphenyl)-2-(9H-purin-6-yl)-2,3,4,9-tetrahydro-1H-beta-carboline] | C (C = <50% inhibition) | C (C = <50% inhibition) | C (C = <50% inhibition) | C (C = <50% inhibition) | C (C = <50% inhibition) | C (C = <50% inhibition)
C (C = <50% inhibition) | CC(C)c1ccc(C2c3[nH]c4ccccc4c3CCN2c2nc(N)nc3[nH]cnc23)cc1 (stereo not drawn) [Compound 20, 6-[1-(4-isopropylphenyl)-1,3,4,9-tetrahydro-2H-beta-carbolin-2-yl]-9H-purin-2-amine] | A (A = 80-100% inhibition) | B (B = 50-79% inhibition) | C (C = <50% inhibition) | A (A = 80-100% inhibition) | A (A = 80-100% inhibition) | B (B = 50-79% inhibition)
